# Reference: US6376511B2, “8-aminoquinolines” (The University of Mississippi, priority 1999, dated 2002)
# Where two headings read alike, the source gives them in different places.
# Experiments:
# [1] = test system: Plasmodium berghei KBG-173; assay type: in vivo; settings: for Parasitemia Day 6: percentage of red blood cells with parasites, control 31.8
# Description: Blood Schizontocidal Test (Trophozoite-Induced Plasmodium berghei Infection in mice University of Miami, Test System: Thompson Test
# Drugs were mixed in 0.5% hydroxycellulose 0.1% Tween 80 and administered orally b.i.d. on days 3, 4 and 5 postinfection. CD-1 male or female mice, 5 weeks of age, were infected with 5×10^4 parasitized erythrocytes of Plasmodium berghei KBG-173 mm strain. Blood films were taken on day +6 and weekly thereafter until day +60. Parasitemias were calculated and SD90 value (dose suppressing 90% of the parasites in treated groups compared with the infected non-treated controls) on day +6 postinfection. Mortality data was tabulated for 60 days at which time all mice surviving that were blood film negative were considered cured.
# […] The activity of these compounds were compared with the untreated control and “racemate” which is a mixture of equal amount of each enantiomer X and Y. In untreated controls, death occurs within 8-9 days. Compounds which are effective against Plasmodium berghei infection increase the mean survival time of the infected animals when compared with the untreated controls. Mice that survive after thirty days and are free of parasites in blood are considered cured.
# Efficacy of the drug is determined by the number of cures at the end of a 30 day period and the increase in mean survival time over the control (ΔMST). The effect of the test drugs also could be determined by the reduction of the parasitemia (percentage of the red blood cells detected with the parasites) over the untreated control on day 6, one day after the treatment is completed. Both these methods yield virtually identical results. If the dose of test compounds are inadequate, after initial clearance, residual parasites will multiply and relapses will occur within thirty days. The blood schizontocidal activities (suppressive antimalarial) of X, Y, and racemate against P. berghei in mice are shown in Table 11.
# [2] = test system: Plasmodium berghei KBG-173; assay: Prophylactic test, Plasmodium berghei infection in mice, oral; assay type: in vivo; settings: for Mice surviving day 60/Mice infected and treated: single dose of 2 mg/kg
# From the text: CD-I male or female mice, 5 weeks of age, were infected with 5×10^4 parasitized erythrocytes ot Plasmodium berghei KBG-173 mm strain. Blood films were taken on day +6 and weekly thereafter until day+30. […]
# P. carinii = assay: In vitro antipneumocystis activity; assay type: cell-based; settings: Pneumocystis carinii, 168 h, read-out: % of control on day 7
# Pneumocystis carinii = assay: Anti-Pneumocystis carinii test (induced Pneumocystis carinii infection in immunosuppressed mice), oral; assay type: in vivo; settings: mice
# L. mexicana amazonensis = assay: In vitro anti-Leishmania activity, Giemsa counts; assay type: cell-based; settings: 10 μg/mL; control 15.10 ± 2.18
# L. donovani Chagasi PP75 = assay: In vitro anti-Leishmania activity, Giemsa counts; assay type: cell-based; settings: control 6.35
# Toxoplasma gondii = assay: In vitro evaluation against Toxoplasma gondii; assay type: cell-based; settings: preliminary evaluation
# [3] = test system: trypanosome isolate EATRO Lab 110; assay: Antitrypanosomal activity, trypanosome isolates grown as blood forms in HMI-18; assay type: cell-based, Trypanosoma; settings: Trypanosoma, 48 h
# Description: (§1) Compounds were tested vs. trypanosome isolates grown as blood forms in HMI-18 (Hirumi H., Hirumi, K. 1989. Continuous Cuitivation of Trypanosoma brucei bloodstream forms in a medium containing a low concentration of serum portein without feeder cell layers. J. Parasitol. 75:985-989) containing 20% horse serum.
# [4] = test system: trypanosome isolate KETRI 243As103; assay: as above; assay type: cell-based, Trypanosoma; settings: Trypanosoma, 48 h
# Description: as §1
# [5] = test system: trypanosome isolate KETRI 243; assay: as above; assay type: cell-based, Trypanosoma; settings: Trypanosoma, 48 h
# Description: as §1
# [6] = test system: trypanosome isolate KETRI 269; assay: as above; assay type: cell-based, Trypanosoma; settings: Trypanosoma, 48 h
# Description: as §1
# Leishmania = assay: In vitro activity against a variety of strains of Leishmania; assay type: cell-based
# P. berghei = settings: single dose 72 h after infection, cited from earlier work
# P. cynomolgi = settings: rhesus monkey, cited from earlier work
# [7] = 0.25 mg/kg/day, 0.75 mg/kg total
# [8] = oral 1.3 mg/kg/day (x21), mean score on 0 to 5+ scale
compound,measurement,setting,value
"COc1cc(NC(C)CCCN)c2nccc(C)c2c1Oc1ccc(Cl)c(Cl)c1 (racemic) [DN3-27-1, 8-[(4-amino-1-methylbutyl)amino]-5-(3,4-dichlorophenoxy)-6-methoxy-4-methylquinoline]",Mice Alive Day 26,[1]; [7],0/5
same,ΔMST (increase in mean survival time over the control),[1]; [7],11.6 days
same,Parasitemia Day 6,[1]; [7],4.8
same,Mice Alive Day 26,"[1]; 1 mg/kg/day, 3 mg/kg total",0/5
same,ΔMST (increase in mean survival time over the control),"[1]; 1 mg/kg/day, 3 mg/kg total",10.2 days
same,Parasitemia Day 6,"[1]; 1 mg/kg/day, 3 mg/kg total",0.1
same,toxicity in mice,[1]; highest dose tested (Table I),no mice showed toxicity at the highest dose tested
same,Mice surviving 60 days/Mice infected and treated,"[1]; oral dose 1 mg/kg/day (total dose 3 mg/kg), P. berghei in mice",7/7
same,Mice surviving 60 days/Mice infected and treated,"[1]; oral dose 4 mg/kg/day (total dose 12 mg/kg), P. berghei in mice",7/7
same,Mice surviving 60 days/Mice infected and treated,"[1]; oral dose 16 mg/kg/day (total dose 48 mg/kg), P. berghei in mice",7/7
same,Mice surviving 60 days/Mice infected and treated,"[1]; oral dose 64 mg/kg/day (total dose 192 mg/kg), P. berghei in mice",7/7
same,"blood schizonticidal activity, comparison among compounds of Table I","[1]; oral, P. berghei in mice",the most active
same,Mice infected and Mice/treated surviving day 60,"[2]; day of treatment 1, dose 2 mg/kg",5/5
same,Mice infected and Mice/treated surviving day 60,"[2]; day of treatment 1, dose 8 mg/kg",5/5
same,Mice infected and Mice/treated surviving day 60,"[2]; day of treatment 1, dose 32 mg/kg",5/5
same,Mice infected and Mice/treated surviving day 60,"[2]; day of treatment 1, dose 128 mg/kg",5/5
same,Mice infected and Mice/treated surviving day 60,"[2]; day of treatment 2, dose 2 mg/kg",5/5
same,Mice infected and Mice/treated surviving day 60,"[2]; day of treatment 2, dose 8 mg/kg",5/5
same,Mice infected and Mice/treated surviving day 60,"[2]; day of treatment 2, dose 32 mg/kg",5/5
same,Mice infected and Mice/treated surviving day 60,"[2]; day of treatment 2, dose 128 mg/kg",5/5
same,Mice infected and Mice/treated surviving day 60,"[2]; day of treatment -1, dose 2 mg/kg",5/5
same,Mice infected and Mice/treated surviving day 60,"[2]; day of treatment -1, dose 8 mg/kg",5/5
same,Mice infected and Mice/treated surviving day 60,"[2]; day of treatment -1, dose 32 mg/kg",5/5
same,Mice infected and Mice/treated surviving day 60,"[2]; day of treatment -1, dose 128 mg/kg",5/5
same,Mice infected and Mice/treated surviving day 60,"[2]; day of treatment -2, dose 2 mg/kg",5/5
same,Mice infected and Mice/treated surviving day 60,"[2]; day of treatment -2, dose 8 mg/kg",5/5
same,Mice infected and Mice/treated surviving day 60,"[2]; day of treatment -2, dose 32 mg/kg",5/5
same,Mice infected and Mice/treated surviving day 60,"[2]; day of treatment -2, dose 128 mg/kg",5/5
same,Mice infected and Mice/treated surviving day 60,"[2]; day of treatment -3, dose 2 mg/kg",0/5
same,Mice infected and Mice/treated surviving day 60,"[2]; day of treatment -3, dose 8 mg/kg",5/5
same,Mice infected and Mice/treated surviving day 60,"[2]; day of treatment -3, dose 32 mg/kg",5/5
same,Mice infected and Mice/treated surviving day 60,"[2]; day of treatment -3, dose 128 mg/kg",5/5
same,protection from malaria,"[2]; single dose of 2 mg/kg within 2 days preinfection through 2 days post infection, mice",completely protected from malaria
same,Mice surviving day 60/Mice infected and treated,[2]; day of treatment 2 (Table 5),2/5
same,Mice surviving day 60/Mice infected and treated,[2]; day of treatment -2 (Table 5),0/5
same,Mice surviving day 60/Mice infected and treated,[2]; day of treatment -3 (Table 5),0/5
same,Mice surviving day 60/Mice infected and treated,[2]; day of treatment -4 (Table 5),0/5
same,Mice surviving day 60/Mice infected and treated,[2]; day of treatment -5 (Table 5),0/5
same,activity at 0.1 µg/mL,P. carinii; concentration 0.1 μg/ml,76.7%
same,activity at 1 µg/mL,P. carinii; concentration 1.0 μg/ml,40.5%
same,activity at 10 µg/mL,P. carinii; concentration 10 μg/ml,3.2%
same,Giemsa Stain I/T (animals with organism after treatment/animals treated),Pneumocystis carinii; oral 0.25 mg/kg/day (x21),2/10
same,Giemsa Stain I/T (animals with organism after treatment/animals treated),Pneumocystis carinii; oral 1.3 mg/kg/day (x21),0/10
same,Silver stain I/T (animals with organism after treatment/animals treated),Pneumocystis carinii; oral 1.3 mg/kg/day (x21),0/10
same,Giemsa Stain Score,Pneumocystis carinii; [8],0.0
same,Silver stain Score,Pneumocystis carinii; [8],0.0
same,Giemsa Counts,L. mexicana amazonensis,1.30 ± 0.38
same,Giemsa Counts,L. donovani Chagasi PP75; 50 ng/mL,0.95 ± 0.27
same,Giemsa Counts,L. donovani Chagasi PP75; 150 ng/mL,0.10 ± 0.03
same,Giemsa Counts,L. donovani Chagasi PP75; 450 ng/mL,0.00 ± 0.00
same,activity in vitro against Toxoplasma gondii (concentration),Toxoplasma gondii,around 50 μM
same,IC50,[3],9.4 µM
same,IC50,[4],10.9 µM
same,IC50,[5],29 µM
same,IC50,[6],5 µM
same,in vitro activity against a variety of strains of Leishmania,Leishmania,in vitro activity at very low concentrations
same,Mice infected and treated/Mice surviving 60 days,P. berghei; 5 mg/kg subcutaneously,5/4
same,Mice infected and treated/Mice surviving 60 days,P. berghei; 10 mg/kg subcutaneously,5/5
same,Mice infected and treated/Mice surviving 60 days,P. berghei; 20 mg/kg subcutaneously,5/5
same,Mice infected and treated/Mice surviving 60 days,P. berghei; 40 mg/kg subcutaneously,5/5
same,Mice infected and treated/Mice surviving 60 days,P. berghei; 80 mg/kg subcutaneously,5/5
same,Mice infected and treated/Mice surviving 60 days,P. berghei; 160 mg/kg subcutaneously,5/5
same,Mice infected and treated/Mice surviving 60 days,P. berghei; 320 mg/kg subcutaneously,5/5
same,Mice infected and treated/Mice surviving 60 days,P. berghei; 640 mg/kg subcutaneously,5/5
same,Monkeys infected and treated/cured,"P. cynomolgi; 0.1 mg/kg/day x7, orally",0/3
same,Monkeys infected and treated/cured,"P. cynomolgi; 0.316 mg/kg/day x7, orally",1/2
same,Monkeys infected and treated/cured,"P. cynomolgi; 1.0 mg/kg/day x7, orally",3/3
